Earlier results in Sander's compilation of Henry's law constants (doi:10.1080/00022470.1982.10465374).

Experiment: Henry solubility constant Hcp at 298.15 K (mol/(m3 Pa))
Details: reference: Shen (1982); cited value

Row | SMILES | Henry solubility constant Hcp
1 | c1ccccc1 [benzene] | 0.0018
2 | ClC(Cl)(Cl)C(Cl)(Cl)Cl [hexachloroethane] | 0.001
3 | CC(Cl)(Cl)Cl [1,1,1-trichloroethane] | 0.002
4 | Clc1cccc(Cl)c1 [1,3-dichlorobenzene] | 0.0038
5 | Clc1ccccc1 [chlorobenzene] | 0.0025
6 | O=[N+]([O-])c1ccccc1 [nitrobenzene] | 0.41
7 | C=C(Cl)Cl [1,1-dichloroethene] | 0.00066
8 | ClC(Cl)=C(Cl)Cl [tetrachloroethene] | 0.00034
9 | Cc1ccccc1 [methylbenzene] | 0.0017
10 | ClC=CCCl [1,3-dichloropropene] | 0.0028
11 | ClC(Cl)=C(Cl)C(Cl)=C(Cl)Cl [hexachlorobutadiene] | 0.00096
12 | ClC1=C(Cl)C2(Cl)C3C4OC4C(Cl)C3C1(Cl)C2(Cl)Cl (centres undefined) [heptachlorepoxide] | 0.31
13 | ClC1=C(Cl)[C@]2(Cl)[C@H]3[C@H]([C@@H]4C=C[C@H]3C4)[C@@]1(Cl)C2(Cl)Cl [aldrin] | 0.02
14 | c1cc2c3c(cccc3c1)CC2 [acenaphthene] | 0.041
15 | ClC1=C(Cl)[C@]2(Cl)C3C(Cl)C(Cl)CC3[C@@]1(Cl)C2(Cl)Cl (some centres undefined) [chlordane] | 0.21
16 | Clc1ccc(Cl)cc1 [1,4-dichlorobenzene] | 0.0036
17 | c1ccc2c(c1)Cc1ccccc1-2 [2,3-benzindene] | 0.084
18 | ClC=C(Cl)Cl [trichloroethene] | 0.00084
19 | ClC1=C(Cl)[C@]2(Cl)[C@@H]3[C@@H]4C[C@@H]([C@H]5O[C@@H]45)[C@@H]3[C@@]1(Cl)C2(Cl)Cl [dieldrin] | 0.17
20 | ClCCl [dichloromethane] | 0.0031
21 | ClC1=C(Cl)C(Cl)(Cl)C(Cl)=C1Cl [hexachlorocyclopentadiene] | 0.0006
22 | CC(Cl)CCl (centres undefined) [1,2-dichloropropane] | 0.0035
23 | CCc1ccccc1 [ethylbenzene] | 0.0015
24 | ClC1=C(Cl)C2(Cl)C3C(Cl)C=CC3C1(Cl)C2(Cl)Cl (centres undefined) [heptachlor] | 0.0067
25 | ClC(Br)Br [dibromochloromethane] | 0.013
26 | ClC(Cl)(Cl)Cl [tetrachloromethane] | 0.00033
27 | C1=Cc2cccc3cccc1c23 [acenaphthylene] | 0.087
28 | BrC(Br)Br [tribromomethane] | 0.019
29 | ClC(Cl)Br [bromodichloromethane] | 0.0047
